Test results published in ChEMBL document CHEMBL3877265, “Design, synthesis and docking studies of novel 1,2-dihydro-4-hydroxy-2-oxoquinoline-3-carboxamide derivatives as a potential anti-proliferative agents” (2017).

How the values were obtained:
Assay type in all cases: functional
[1] = Antiproliferative activity against human MDA-MB-231 cells after 48 hrs by SRB assay; details: MDA-MB-231, 48 h
[2] = Antiproliferative activity against human HeLa cells after 48 hrs by SRB assay
[3] = Antiproliferative activity against human PANC1 cells after 48 hrs by SRB assay; details: PANC-1, 48 h

| SMILES | GI50 ([1]; read-out: GI50) | GI50 ([1]; read-out: pGI50 (converted)) | GI50 ([2]; read-out: GI50) | GI50 ([2]; read-out: pGI50 (converted)) | GI50 ([3]; read-out: GI50) | GI50 ([3]; read-out: pGI50 (converted)) |
| --- | --- | --- | --- | --- | --- | --- |
| COc1ccccc1N1CCN(C(=O)CCNC(=O)c2c(O)c3ccccc3n(C)c2=O)CC1 | 1.2 µM | 1.2 µM | 0.74 µM | 0.74 µM | 0.7 µM | 0.7 µM |
| Cn1c(=O)c(C(=O)NCCC(=O)N2CCN(c3ccc(C(F)(F)F)cc3)CC2)c(O)c2ccccc21 | 5.4 µM | 5.4 µM | 3.7 µM | 3.7 µM | 2.55 µM | 2.55 µM |
| COc1cccc(N2CCN(C(=O)CCNC(=O)c3c(O)c4ccccc4n(C)c3=O)CC2)c1 | 1.3 µM | 1.3 µM | 0.73 µM | 0.73 µM | 0.51 µM | 0.51 µM |
| Cn1c(=O)c(C(=O)NCCC(=O)N2CCCCC2)c(O)c2ccccc21 | 1.4 µM | 1.4 µM | 0.82 µM | 0.82 µM | 0.15 µM | 0.15 µM |
| Cn1c(=O)c(C(=O)NCCC(=O)N2CCN(c3ccccc3)CC2)c(O)c2ccccc21 | 1.62 µM | 1.62 µM | 3.9 µM | 3.9 µM | 1.57 µM | 1.57 µM |
| COc1ccc(C[C@@H](O)c2cc(OC)c(OC)c(OC)c2)cc1O [COMBRETASTATIN] | 0.09 µM | 0.09 µM | 0.083 µM | 0.083 µM | 0.059 µM | 0.059 µM |
| CCN1CCN(C(=O)CCNC(=O)c2c(O)c3ccccc3n(C)c2=O)CC1 | 1.32 µM | 1.32 µM | 0.88 µM | 0.88 µM | 0.48 µM | 0.48 µM |
| COC(=O)Nc1nc2cc(C(=O)c3cccs3)ccc2[nH]1 [NOCODAZOLE] | < 0.01 µM |  | < 0.01 µM |  | < 0.01 µM |  |
| CN1CCN(C(=O)CCNC(=O)c2c(O)c3ccccc3n(C)c2=O)CC1 | 0.59 µM | 0.59 µM | 1.16 µM | 1.16 µM | 1.66 µM | 1.66 µM |
| Cn1c(=O)c(C(=O)NCCC(=O)N2CCN(c3ccccc3F)CC2)c(O)c2ccccc21 | 1.7 µM | 1.7 µM | 0.96 µM | 0.96 µM | 2.5 µM | 2.5 µM |
| Cn1c(=O)c(C(=O)NCCC(=O)N2CCN(Cc3ccccc3)CC2)c(O)c2ccccc21 | 0.51 µM | 0.51 µM | 0.76 µM | 0.76 µM | 0.95 µM | 0.95 µM |
| Cn1c(=O)c(C(=O)NCCC(=O)N2CCC(Cc3ccccc3)CC2)c(O)c2ccccc21 | 0.71 µM | 0.71 µM | 1.4 µM | 1.4 µM | 0.68 µM | 0.68 µM |
| Cn1c(=O)c(C(=O)NCCC(=O)N2CCSCC2)c(O)c2ccccc21 | 2.25 µM | 2.25 µM | 3 µM | 3 µM | 1.91 µM | 1.91 µM |
| Cn1c(=O)c(C(=O)NCCC(=O)N2CCN(c3ccc([N+](=O)[O-])cc3)CC2)c(O)c2ccccc21 | 0.3 µM | 0.3 µM | 0.94 µM | 0.94 µM | 0.42 µM | 0.42 µM |
